From US12252490B2, “Inhibiting deubiquitinase USP25 and USP28” (Valo Health, Inc., priority 2018, dated 2025)

Target: T1, USP28 (USP28-5(1-1077)-TEV-6*His; LifeSensors) (Homo sapiens, UniProt Q96RU2)
T1 construct: construct USP28 (USP28-5(1-1077)-TEV-6*His; LifeSensors); TEV cleavage site (C); 6xHis (C); purchased LifeSensors
T1 sequence (Q96RU2 1-1077): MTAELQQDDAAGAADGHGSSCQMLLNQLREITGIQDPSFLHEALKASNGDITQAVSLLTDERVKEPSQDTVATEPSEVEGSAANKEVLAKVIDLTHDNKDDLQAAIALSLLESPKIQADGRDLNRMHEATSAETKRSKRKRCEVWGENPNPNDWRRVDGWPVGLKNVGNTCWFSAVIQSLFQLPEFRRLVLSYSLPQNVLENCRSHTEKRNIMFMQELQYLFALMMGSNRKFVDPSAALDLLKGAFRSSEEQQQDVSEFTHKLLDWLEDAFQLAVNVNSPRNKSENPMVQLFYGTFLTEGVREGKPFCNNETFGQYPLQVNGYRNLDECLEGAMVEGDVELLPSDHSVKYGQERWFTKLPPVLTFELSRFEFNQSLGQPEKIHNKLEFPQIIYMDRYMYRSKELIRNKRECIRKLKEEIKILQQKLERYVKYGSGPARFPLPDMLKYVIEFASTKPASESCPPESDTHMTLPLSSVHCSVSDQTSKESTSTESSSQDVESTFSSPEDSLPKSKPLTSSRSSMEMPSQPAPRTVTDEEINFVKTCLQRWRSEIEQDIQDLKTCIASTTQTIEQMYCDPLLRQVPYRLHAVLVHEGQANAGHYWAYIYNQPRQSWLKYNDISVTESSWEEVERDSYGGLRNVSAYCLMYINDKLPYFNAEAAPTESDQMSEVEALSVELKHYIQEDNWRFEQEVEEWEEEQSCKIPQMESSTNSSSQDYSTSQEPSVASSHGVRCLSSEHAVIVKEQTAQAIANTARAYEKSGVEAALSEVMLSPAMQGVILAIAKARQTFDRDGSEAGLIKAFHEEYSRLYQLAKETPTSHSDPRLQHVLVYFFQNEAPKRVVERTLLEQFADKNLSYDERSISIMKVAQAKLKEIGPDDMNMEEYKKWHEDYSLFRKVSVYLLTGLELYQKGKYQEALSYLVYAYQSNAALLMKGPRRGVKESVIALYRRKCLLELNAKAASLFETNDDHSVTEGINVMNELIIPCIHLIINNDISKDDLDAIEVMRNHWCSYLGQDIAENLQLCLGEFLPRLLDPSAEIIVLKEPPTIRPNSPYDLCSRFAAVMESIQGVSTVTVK
Assay: Ubiquitin-Rhodamine 110 Assay for USP28 Activity, Example A-1(b)
Assay type: biochemical
Conditions: 75 pM enzyme, 25 nM Ub-Rh110, 384-well follow-up format
Method: Each assay was performed in a final volume of 20 μL in assay buffer containing 20 mM Tris-HCl (pH 8.0, (1M Tris-HCl, pH 8.0 solution; Corning 46-031-CM)), 2 mM CaCl2 (1M Calcium Chloride solution; Sigma #21114) 2 mM BME (2-Mercaptoethanol; Sigma 63689-25ML-F), 0.01% Prionex ([…] filtered, Sigma #G-0411), and 0.01% Triton X-100. Stock compound solutions were stored at −20° C. as 10 mM in DMSO. Up to 1 month prior to the assay, 2 mM test compounds were pre-dispensed into assay plates (Black, low volume; Corning #3820) and frozen at −20° C. Prestamped assay plates were allowed to come to room temperature on the day of the assay. For the screen, 100 nL of 2 mM was pre-dispensed for a final screening concentration of 10 μM (DMSO(fc)=0.5%). Enzyme (USP28, construct USP28 (USP28-5(1-1077)-TEV-6*His; LifeSensors) concentration and incubation times were optimized for the maximal signal-to-background while maintaining initial velocity conditions at a fixed substrate concentration. The final concentration of the enzyme in the assay was 400 pM. Final substrate (Ub-Rh110; Ubiquitin-Rhodamine 110, R&D Systems #U-555) concentration was 25 nM with [Ub-Rh110]<<Km. 10 μL of 2× enzyme was added to assay plates (pre-stamped with compound) either simultaneously with 2×Ub-Rh110 or preincubated with USP28 40 minutes prior to the addition of 10 μL of 2×Ub-Rh110 to compound plates. Plates were incubated stacked for 90 minutes at room temperature before fluorescence was read on the Envision (Excitation at 485 nm and Emission at 535 nm; Perkin Elmer) or on the PheraSTAR (Excitation at 485 nm and Emission at 535 nm; BMG Labtech).
For follow-up studies, each assay was performed in a final volume of 15 μL in assay buffer containing 20 mM Tris-HCl (pH 8.0, (1M Tris-HCl, pH 8.0 solution; Corning 46-031-CM)), 3 mM BME (2-Mercaptoethanol; Sigma 63689-25ML-F), 0.03% BGG (0.22 μM filtered, Sigma, G7516-25G), and 0.01% Triton X-100 (Sigma, T9284-10L). Nanoliter quantities of either an 8-point or 10-point, 3-fold serial dilution in DMSO was pre-dispensed into assay plates (Perkin Elmer, ProxiPlate-384 F Plus, #) for a final test concentration of either 25 μM to 11 nM or 25 μM to 1.3 nM, respectively. Enzyme USP28, construct USP28 (USP28-5(1-1077)-TEV-6*His; LifeSensors) concentration and incubation times were optimized for the maximal signal-to-background while maintaining initial velocity conditions at a fixed substrate concentration. The final concentration of the enzyme in the assay was 75 pM. Final substrate (Ub-Rh110; Ubiquitin-Rhodamine 110, R&D Systems #U-555) concentration was 25 nM with [Ub-Rh110]<<Km. 5 μL of 2× enzyme was added to assay plates (pre-stamped with compound) preincubated with USP28 for 30 minutes and then 5 μL of 2×Ub-Rh110 was added to assay plates. Plates were incubated stacked for 20 minutes at room temperature before 5 μL of stop solution was added (final concentration of 10 mM citric acid (Sigma, 251275-500G)). Fluorescence was read on the Envision (Excitation at 485 nm and Emission at 535 nm; Perkin Elmer) or on the PheraSTAR (Excitation at 485 nm and Emission at 535 nm; BMG Labtech).
For assay formats Examples A-1a, A-1b, and A-2, data were reported as percent inhibition compared with control wells based on the following equation: % inh=1−((FLU−AveLow)/(AveHigh−AveLow)) where FLU=measured Fluorescence, AveLow=average Fluorescence of no enzyme control (n=16), and AveHigh=average Fluorescence of DMSO control (n=16). IC50 values were determined by curve fitting of the standard 4 parameter logistic fitting algorithm included in the Activity Base software package: IDBS XE Designer Model205. Data is fitted using the Levenburg Marquardt algorithm.

SMILES | Assay A-1(b) (IC50 range)
CCn1cc(Cl)c2cc(C(=O)NCCc3ccc(N4CCNCC4)cc3)cnc21 [Example 3-1, 3-Chloro-1-ethyl-N-[2-[4-(piperazin-1-yl)phenyl]ethyl]-1H-pyrrolo[2,3-b]pyridine-5-carboxamide] | +++ (“+++”: 0.05-0.2 μM)
CCn1ccc2cc(C(=O)NC[C@@H](C)c3cc(F)c(N4CCNCC4)cc3F)cnc21 (single isomer, unassigned) [Example 2-1] | ++ (“++”: 0.2-2 μM)
Nc1c(C(=O)NCCc2ccc(N3CCNCC3)cc2)cnc2[nH]ccc12 [Example 1-5, 4-amino-N-(4-(piperazin-1-yl)phenethyl)-1H-pyrrolo[2,3-b]pyridine-5-carboxamide] | + (“+”: 2-10 μM)
Cn1ccc2cc(C(=O)NCCc3ccc(N4CCNCC4)cc3)cnc21 [Example 1-3, 1-methyl-N-(4-(piperazin-1-yl)phenethyl)-1H-pyrrolo[2,3-b]pyridine-5-carboxamide] | ++ (“++”: 0.2-2 μM)
O=C(NCCc1ccc(N2CCNCC2)cc1)c1cnc2c(ccn2CC(F)(F)F)c1 [Example 1-8] | +++ (“+++”: 0.05-0.2 μM)
CCn1ccc2cc(C(=O)NCCc3cc(F)c(N4CC5CCC(C4)N5)cc3F)nnc21 [Example 4-1, N-[2-(4-[3,8-diazabicyclo[3.2.1]octan-3-yl]-2,5-difluorophenyl)ethyl]-7-ethyl-7H-pyrrolo[2,3-c]pyridazine-3-carboxamide] | +++ (“+++”: 0.05-0.2 μM)
CC(C)(O)Cn1ccc2cc(C(=O)NCCc3cc(F)c(N4CC5CCC(C4)N5)cc3F)cnc21 [Example 1-9, N-(4-(3,8-diazabicyclo[3.2.1]octan-3-yl)-2,5-difluorophenethyl)-1-(2-hydroxy-2-methylpropyl)-1H-pyrrolo[2,3-b]pyridine-5-carboxamide] | − (“−”: >10 μM)
CCn1cc(Cl)c2cc(C(=O)NCCc3cc(F)c(N4CC5CCC(C4)N5)cc3F)nnc21 [Example 4-4, N-(4-(3,8-diazabicyclo[3.2.1]octan-3-yl)-2,5-difluorophenethyl)-5-chloro-7-ethyl-7H-pyrrolo[2,3-c]pyridazine-3-carboxamide] | +++ (“+++”: 0.05-0.2 μM)
CCn1ccc2cc(C(=O)NC[C@H](C)c3cc(F)c(N4CC5CCC(C4)N5)cc3F)cnc21 (single isomer, unassigned) [Example 2-3] | ++ (“++”: 0.2-2 μM)
CCn1ccc2cc(C(=O)NCCc3ccc(N4CCNCC4)cc3)cnc21 [Example 1-4, 1-ethyl-N-(4-(piperazin-1-yl)phenethyl)-1H-pyrrolo[2,3-b]pyridine-5-carboxamide] | +++ (“+++”: 0.05-0.2 μM)
CCn1ccc2cc(C(=O)NC[C@H](C)c3cc(F)c(N4CCNCC4)cc3F)cnc21 (single isomer, unassigned) [Example 2-2] | + (“+”: 2-10 μM)
CCn1ccc2cc(C(=O)NC[C@@H](C)c3cc(F)c(N4CC5CCC(C4)N5)cc3F)cnc21 (single isomer, unassigned) [Example 2-4] | ++ (“++”: 0.2-2 μM)
CCn1ccc2cc(C(=O)NC[C@@H](C)c3cc(F)c(N4CC5CCC(C4)N5)cc3F)nnc21 (single isomer, unassigned) [Example 4-3] | ++ (“++”: 0.2-2 μM)
CCn1ccc2cc(C(=O)NCCc3cc(F)c(N4CC5CCC(C4)N5)cc3F)cnc21 [Example 1-1, N-[2-(4-[3,8-diazabicyclo[3.2.1]octan-3-yl]-2,5-difluorophenyl)ethyl]-1-ethyl-1H-pyrrolo[2,3-b]pyridine-5-carboxamide] | +++ (“+++”: 0.05-0.2 μM)
O=C(NCCc1ccc(N2CCNCC2)cc1)c1cnc2[nH]ccc2c1 [Example 1-2, N-(4-(piperazin-1-yl)phenethyl)-1H-pyrrolo[2,3-b]pyridine-5-carboxamide] | + (“+”: 2-10 μM)
O=C(NCCc1ccc(N2CCNCC2)cc1)c1cnc2[nH]cc(Cl)c2c1 [Example 3-2, 3-chloro-N-(4-(piperazin-1-yl)phenethyl)-1H-pyrrolo[2,3-b]pyridine-5-carboxamide] | + (“+”: 2-10 μM)
CCn1ccc2cc(C(=O)NCCc3ccc(N4CC5CCC(C4)N5)c(F)c3)cnc21 [Example 1-10, N-(4-(3,8-diazabicyclo[3.2.1]octan-3-yl)-3-fluorophenethyl)-1-ethyl-1H-pyrrolo[2,3-b]pyridine-5-carboxamide] | +++ (“+++”: 0.05-0.2 μM)
CCn1ccc2cc(C(=O)NC[C@H](C)c3cc(F)c(N4CC5CCC(C4)N5)cc3F)nnc21 (single isomer, unassigned) [Example 4-2] | ++ (“++”: 0.2-2 μM)
CCn1ccc2cc(C(=O)NCCc3ccc(N4CC5CCC(C4)N5)cc3)cnc21 [Example 1-6, N-(4-(3,8-diazabicyclo[3.2.1]octan-3-yl)phenethyl)-1-ethyl-1H-pyrrolo[2,3-b]pyridine-5-carboxamide] | ++++ (“++++”: 0.001-0.05 μM)
CCn1ccc2cc(C(=O)NCCc3cc(F)c(N4CCNCC4)cc3F)cnc21 [Example 1-7, N-(2,5-difluoro-4-(piperazin-1-yl)phenethyl)-1-ethyl-1H-pyrrolo[2,3-b]pyridine-5-carboxamide] | +++ (“+++”: 0.05-0.2 μM)
